This note sets out measurements from ChEMBL document CHEMBL1201862, “PubChem BioAssay data set” (2004).

The structures appear in SMILES notation.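 The compound was tested at five concentrations on cells cultured in 96-well plates, with a 48-hour exposure period. GI50 = concentration required for 50% inhibition of growth.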 The source made the active and inactive calls. Cut-off read from the data, not from the text of the source: active = GI50 up to about 1.1 µM and inactive = higher.

Holding throughout (assay): NCI anticancer screen, dose series, 48 h
For experiment [1], the system named is HCC 2998.
The test system of experiment [2] is SNB-19.
In experiment [3] the test system is 786-0.
Experiment [4] concerns RPMI-8226.
For experiment [5], the system named is SF-539.
The subject of experiment [6] is RXF 393.
Experiment [7] relates to M14.
For experiment [8], the system named is OVCAR-3.
For experiment [9], the system named is UO-31.
Experiment [10] has as its system U-251.
In experiment [11] the test system is NCI-H226.
Experiment [12] deals with HT-29.
Experiment [13] has as its system SNB-75.
Experiment [14] deals with KM12.
The subject of experiment [15] is CCRF-CEM.
The subject of experiment [16] is UACC-257.
Experiment [17] concerns NCI-H522.
Experiment [18] has as its system SF-295.
Experiment [19] has as its system HCT-116.
Experiment [20] concerns SK-OV-3.

As to `c1ccc(C2C(=P(c3ccccc3)(c3ccccc3)c3ccccc3)P=PC2[P+](c2ccccc2)(c2ccccc2)c2ccccc2)cc1.c1ccc([B-](c2ccccc2)(c2ccccc2)c2ccccc2)cc1` (centres undefined), the GI50 was 0.593 µM (active) in experiment [1]; 0.313 µM (active) in experiment [2]; 0.289 µM (active) in experiment [3]; 0.278 µM (active) in experiment [4]; 0.656 µM (active) in experiment [5]; 0.285 µM (active) in experiment [6]. Also, the GI50 in experiment [7] was 0.286 µM (active); in [8] it was 0.579 µM (active); in [9], 18.8 µM (inactive); in experiment [10], 0.176 µM (active); in experiment [11], 1.11 µM (active); in experiment [12], 0.354 µM (active). The GI50 is 0.582 µM (active) in experiment [13]; 0.351 µM (active) in experiment [14]; 2.25 µM (inactive) in experiment [15]; 1.12 µM (inactive) in experiment [16]; 0.424 µM (active) in experiment [17]; 0.492 µM (active) in [18]. Besides, the GI50 was 0.0841 µM (active) in [19] and 1.85 µM (inactive) in [20].
As to `NCCCNC1(c2cc3ccccc3s2)CCCCC1`, the GI50 was 1.55 µM (inactive) in experiment [1]; 8.77 µM (inactive) in experiment [2]; 2 µM (inactive) in [3]; 1.91 µM (inactive) in [4]; 2.38 µM (inactive) in experiment [5]; 4.17 µM (inactive) in experiment [6]. In addition, the GI50 in [7] was 1.8 µM (inactive); in [8], 7.19 µM (inactive); in experiment [9] it was 1.93 µM (inactive); in [10], 2.93 µM (inactive); in [11] it was 17.1 µM (inactive); in experiment [12], 2.95 µM (inactive). Besides, the GI50 in experiment [13] was 10.9 µM (inactive); in [14] it was 3.22 µM (inactive); in experiment [15] it was 2.48 µM (inactive); in experiment [16] it was 1.64 µM (inactive); in experiment [17], 3.21 µM (inactive); in experiment [18] it was 9.48 µM (inactive). Moreover, the GI50 in experiment [19] was 2.06 µM (inactive); in experiment [20], 13.5 µM (inactive).
For the compound `COC(=O)C(Cc1nc2ccccc2nc1C)/C(=N\NC(N)=O)C(=O)Nc1cccc([N+](=O)[O-])c1` (centres undefined), the GI50 in [1] was > 100 µM (inactive); in [2] it was > 100 µM (inactive); in [3], > 100 µM (inactive); in experiment [4] it was > 100 µM (inactive); in [5], 74.3 µM (inactive); in experiment [6], 36.8 µM (inactive). Besides, the GI50 is > 100 µM (inactive) in experiment [7]; 51.2 µM (inactive) in experiment [8]; > 100 µM (inactive) in experiment [9]; 37.6 µM (inactive) in [10]; > 100 µM (inactive) in [11]; > 100 µM (inactive) in [12]. Also, the GI50 in [13] is > 100 µM (inactive); in experiment [14], 95.9 µM (inactive); in experiment [15] it was 29.6 µM (inactive); in [16], > 100 µM (inactive); in experiment [17], 10.8 µM (inactive); in experiment [18], > 100 µM (inactive). Also, the GI50 in experiment [19] and in experiment [20] was > 100 µM (inactive) each time.
With `NS(=O)(=O)c1ccc(NC(NC(=O)C(C(F)(F)F)C(F)(F)F)(C(F)(F)F)C(F)(F)F)cc1`, the GI50 in experiment [1], in experiment [2], in experiment [3], in [4], in [5] and in experiment [6] was > 100 µM (inactive) each time. The GI50 in experiment [7], in [8], in [9], in experiment [10], in [11] and in [12] was > 100 µM (inactive) each time. In addition, the GI50 in experiment [13], in [14], in experiment [15], in experiment [16], in [17] and in experiment [18] was > 100 µM (inactive) throughout. The GI50 in [19] and in [20] was > 100 µM (inactive) each time.
Turning to `CC1(C)OC(CCO)CN1C(=O)OCc1ccccc1` (centres undefined), the GI50 in experiment [1], in experiment [2], in [3], in [4], in experiment [5] and in experiment [6] was > 100 µM (inactive) each time. Moreover, the GI50 in experiment [7] is > 100 µM (inactive); in [8], > 100 µM (inactive); in experiment [9] it was > 100 µM (inactive); in [10], > 100 µM (inactive); in experiment [11], > 100 µM (inactive); in experiment [13] it was 92 µM (inactive). For the same compound, the GI50 in experiment [14] is > 100 µM (inactive); in experiment [15], > 100 µM (inactive); in [16] it was > 100 µM (inactive); in experiment [17], 74.6 µM (inactive); in [18], > 100 µM (inactive); in [19], > 100 µM (inactive). The GI50 in experiment [20] is > 100 µM (inactive).
In the case of `CS(=O)(=O)c1ccc(/N=C/C=C/Nc2ccc(S(C)(=O)=O)cc2)cc1`, the GI50 in experiment [1], in [2], in [3], in experiment [4], in experiment [5] and in [6] was > 100 µM (inactive) in each case. The GI50 in experiment [7], in experiment [8], in experiment [9], in [10], in [11] and in experiment [12] was > 100 µM (inactive) in each case. Besides, the GI50 is > 100 µM (inactive) in experiment [13]; 27.4 µM (inactive) in [14]; > 100 µM (inactive) in experiment [15]; > 100 µM (inactive) in [16]; > 100 µM (inactive) in experiment [17]; > 100 µM (inactive) in experiment [18]. The GI50 in experiment [19] and in [20] was > 100 µM (inactive) in each case.
For the compound `O=C1c2ccccc2C2=Cc3ccccc3C(O)N12` (centres undefined), the GI50 was > 100 µM (inactive) in [1]; > 100 µM (inactive) in [2]; > 100 µM (inactive) in experiment [3]; 55.3 µM (inactive) in experiment [4]; > 100 µM (inactive) in [5]; 26.2 µM (inactive) in experiment [6]. For the same compound, the GI50 in experiment [7] is > 100 µM (inactive); in experiment [8] it was > 100 µM (inactive); in [9], 18.1 µM (inactive); in experiment [10], > 100 µM (inactive); in [11], > 100 µM (inactive); in experiment [12] it was > 100 µM (inactive). The GI50 in experiment [13] was 92.5 µM (inactive); in experiment [14], > 100 µM (inactive); in experiment [15], 36.5 µM (inactive); in [16], > 100 µM (inactive); in experiment [17], 21.7 µM (inactive); in experiment [18] it was > 100 µM (inactive). Further, the GI50 in [19] and in experiment [20] was > 100 µM (inactive) in each case.
For `CC(=O)OC[C@]1(C(=O)C(O)c2ccoc2)[C@H](C)CC[C@@]23COC(=O)C2=CCC[C@@H]31` (some centres undefined), the GI50 in experiment [1], in experiment [2], in experiment [3], in experiment [4], in experiment [5] and in [6] was > 10 µM (inactive) in each case. Also, the GI50 in experiment [7], in [8], in experiment [9], in experiment [10], in experiment [11] and in experiment [12] was > 10 µM (inactive) in each case. The GI50 in [13], in experiment [14], in experiment [15], in experiment [16], in [17] and in experiment [18] was > 10 µM (inactive) throughout. In addition, the GI50 in experiment [19] and in [20] was > 10 µM (inactive) throughout.
For `CC[C@@]1(O)C(=O)OCc2c1cc1n(c2=O)Cc2c-1nc1ccccc1c2/C=N\NC(=O)C(N)=O`, the GI50 in [1] is 2.25 µM (inactive); in [2], 0.0383 µM (active); in experiment [3], 0.0705 µM (active); in experiment [4], 0.61 µM (active); in experiment [5], 0.0217 µM (active); in experiment [6], 3.04 µM (inactive). The GI50 in experiment [7] was 0.208 µM (active); in [8], 18.3 µM (inactive); in experiment [9], 0.284 µM (active); in experiment [10], 0.0398 µM (active); in experiment [11], 0.219 µM (active); in [12], 4.36 µM (inactive). Besides, the GI50 in [13] was 0.558 µM (active); in experiment [14] it was > 92.3 µM (inactive); in [15], < 0.01 µM (active); in [16] it was 14.4 µM (inactive); in experiment [17], 0.333 µM (active); in experiment [18], 0.151 µM (active). The GI50 in [19] was 0.161 µM (active); in experiment [20], 0.467 µM (active).
As to `C1COCCN1.S=C(S)N1CCOCC1`, the GI50 was 2.59 µM (inactive) in experiment [1]; > 100 µM (inactive) in [2]; 10.1 µM (inactive) in experiment [3]; 1.4 µM (inactive) in experiment [4]; 43.1 µM (inactive) in [5]; 2.43 µM (inactive) in experiment [6]. Further, the GI50 is 12.8 µM (inactive) in experiment [7]; 2.68 µM (inactive) in [8]; > 100 µM (inactive) in experiment [9]; 4.98 µM (inactive) in experiment [10]; > 100 µM (inactive) in experiment [11]; 0.811 µM (active) in experiment [12]. For the same compound, the GI50 in [13] is 7.08 µM (inactive); in [14], 20.1 µM (inactive); in experiment [15], 0.526 µM (active); in experiment [16], 4.68 µM (inactive); in experiment [17], 0.973 µM (active); in experiment [18] it was > 100 µM (inactive). The GI50 in experiment [19] is 2.12 µM (inactive); in experiment [20] it was 5.4 µM (inactive).
